Assay results reported in patent US9376426B2, “Pyridazinone derivatives” (MERCK PATENT GMBH, priority 2009, dated 2016).
Where a name gives a salt, the structure may show the parent alone.

Legend:
Met kinase [1] = biological target: T1, Met kinase (Homo sapiens, UniProt P08581); test: Met kinase inhibition, flashplate method (enzyme); type: biochemical; parameters: 6His (N); purchased Upstate 14-526; host or cells: Sf21 insect cells (S. frugiperda), baculovirus
Source text: Measurement of Met Kinase Activity
According to the manufacturer's data (Met, active, upstate, catalogue No. 14-526), Met kinase is expressed for the purposes of protein production in insect cells (Sf21; S. frugiperda) and subsequent affinity-chromatographic purification as “N-terminal 6His-tagged” recombinant human protein in a baculovirus expression vector.
Flashplate Method (Met Kinase)
The test plates used are 96-well Flashplate® microtitre plates from Perkin Elmer (Cat. No. SMP200). The components of the kinase reaction described below are pipetted into the assay plate. The Met kinase and the substrate poly Ala-Glu-Lys-Tyr, (pAGLT, 6:2:5:1), are incubated for 3 hrs at room temperature with radioactively labelled ^33P-ATP in the presence and absence of test substances in a total volume of 100 μl. The reaction is terminated using 150 μl of a 60 mM EDTA solution. After incubation for a further 30 min at room temperature, the supernatants are filtered off with suction, and the wells are washed three times with 200 μl of 0.9% NaCl solution each time. The measurement of the bound radioactivity is carried out by means of a scintillation measuring instrument (Topcount NXT, Perkin-Elmer).
The full value used is the inhibitor-free kinase reaction. This should be approximately in the range 6000-9000 cpm. The pharmacological zero value used is staurosporin in a final concentration of 0.1 mM. The inhibitory values (IC50) are determined using the RS1_MTS program.
Kinase reaction conditions per well:
10 μl of substance to be tested in assay buffer with 10% of DMSO
10 μl of ATP (final concentration 1 μM cold, 0.35 μCi of ^33P-ATP)
50 μl of Met kinase/substrate mixture in assay buffer;
• (10 ng of enzyme/well, 50 ng of pAGLT/well) • Solutions used: • Assay buffer: • 50 mM HEPES • 3 mM magnesium chloride • 3 μM sodium orthovanadate • 3 mM manganese(II) chloride • 1 mM dithiothreitol (DTT) • pH=7.5 (to be set using sodium hydroxide) • Stop solution: • 60 mM Titriplex III (EDTA) • ^33P-ATP: Perkin-Elmer; • Met kinase: Upstate, Cat. No. 14-526, Stock 1 μg/10 μl; spec. activity 954 U/mg; • Poly-Ala-Glu-Lys-Tyr, 6:2:5:1:Sigma Cat. No. P1152 In-Vivo Tests Experimental Procedure: […]

Met kinase [2] = biological target: T1, Met kinase; test: Met kinase inhibition (cell); type: cell-based

T1 sequence (P08581 25-1390): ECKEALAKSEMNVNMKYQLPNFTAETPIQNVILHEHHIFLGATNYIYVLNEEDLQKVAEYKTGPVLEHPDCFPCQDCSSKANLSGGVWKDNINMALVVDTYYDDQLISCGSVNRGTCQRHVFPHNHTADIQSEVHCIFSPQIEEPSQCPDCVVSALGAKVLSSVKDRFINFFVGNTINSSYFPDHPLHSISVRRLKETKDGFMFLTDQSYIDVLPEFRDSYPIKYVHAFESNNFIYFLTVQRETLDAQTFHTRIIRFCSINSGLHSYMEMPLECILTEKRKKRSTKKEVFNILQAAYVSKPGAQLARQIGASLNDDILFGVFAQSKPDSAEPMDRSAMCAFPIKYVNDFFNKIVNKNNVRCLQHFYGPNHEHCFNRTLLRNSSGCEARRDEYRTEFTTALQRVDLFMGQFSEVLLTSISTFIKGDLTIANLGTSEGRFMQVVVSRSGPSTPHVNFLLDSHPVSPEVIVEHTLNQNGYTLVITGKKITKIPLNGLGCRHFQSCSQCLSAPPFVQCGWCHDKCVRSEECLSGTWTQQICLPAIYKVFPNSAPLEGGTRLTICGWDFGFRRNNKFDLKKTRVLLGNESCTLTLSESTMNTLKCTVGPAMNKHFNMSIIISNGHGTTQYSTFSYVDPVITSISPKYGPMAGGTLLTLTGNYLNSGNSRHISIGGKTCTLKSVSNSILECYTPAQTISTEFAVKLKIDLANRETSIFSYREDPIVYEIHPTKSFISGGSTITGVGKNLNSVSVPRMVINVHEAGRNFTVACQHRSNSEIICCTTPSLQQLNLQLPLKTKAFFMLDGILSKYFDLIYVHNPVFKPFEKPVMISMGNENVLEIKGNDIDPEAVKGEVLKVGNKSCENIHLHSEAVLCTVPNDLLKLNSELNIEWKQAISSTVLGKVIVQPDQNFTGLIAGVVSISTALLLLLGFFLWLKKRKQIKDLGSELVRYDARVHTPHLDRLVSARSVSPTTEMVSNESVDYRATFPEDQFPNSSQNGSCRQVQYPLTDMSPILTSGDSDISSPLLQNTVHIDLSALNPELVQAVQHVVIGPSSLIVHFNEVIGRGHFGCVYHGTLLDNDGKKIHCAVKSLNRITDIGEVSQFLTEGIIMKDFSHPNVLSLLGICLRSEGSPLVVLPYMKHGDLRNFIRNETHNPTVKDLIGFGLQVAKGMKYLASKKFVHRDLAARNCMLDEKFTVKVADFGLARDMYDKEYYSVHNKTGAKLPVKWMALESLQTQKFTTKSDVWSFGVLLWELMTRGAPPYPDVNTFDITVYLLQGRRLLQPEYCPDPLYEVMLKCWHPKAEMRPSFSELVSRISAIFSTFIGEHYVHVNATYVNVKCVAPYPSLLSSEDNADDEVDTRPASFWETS

Row | IC50 (Met kinase [1]) [nM] | IC50 (Met kinase [2]) [nM] | SMILES
1 | 1 to 100 | 100 to 10000 | O=c1ccc(Nc2ccccc2)nn1Cc1cccc(-c2ncc(-c3cnn(C4CCNCC4)c3)cn2)c1 [Compound A2, 6-phenylamino-2-{3-[5-(1-piperidin-4-yl-1H-pyrazol-4-yl)pyrimidin-2-yl]benzyl}-2H-pyridazin-3-one]
2 | 100 to 10000 | 100 to 10000 | CN(C)CCCOc1cnc(-c2cccc(Cn3nc(C(N)=O)ccc3=O)c2)nc1 [Compound A8, 1-{3-[5-(3-dimethylaminopropoxy)pyrimidin-2-yl]benzyl}-6-oxo-1,6-dihydropyridazine-3-carboxamide]

The next lines start with the compound.

Row | SMILES | IC50 (Met kinase [1]) [nM] | IC50 (Met kinase [2]) [nM]
3 | O=c1ccc(Oc2ccccc2)nn1Cc1cccc(-c2ncc(-c3cnn(C4CCNCC4)c3)cn2)c1 [Compound A4, 6-phenoxy-2-{3-[5-(1-piperidin-4-yl-1H-pyrazol-4-yl)pyrimidin-2-yl]benzyl}-2H-pyridazin-3-one hydrochloride] | 100 to 10000 | 100 to 10000
4 | O=c1ccc(Oc2ccccc2)nn1Cc1cccc(-c2ncc(-c3cnn(CCN4CCCC4)c3)cn2)c1 [Compound A3, 6-phenoxy-2-(3-{5-[1-(2-pyrrolidin-1-ylethyl)-1H-pyrazol-4-yl]pyrimidin-2-yl}benzyl)-2H-pyridazin-3-one] | 1 to 100 | 100 to 10000
5 | CN(C)CCCOc1cnc(-c2cccc(Cn3nc(Nc4ccccc4)ccc3=O)c2)nc1 [Compound A1, 2-{3-[5-(3-dimethylaminopropoxy)pyrimidin-2-yl]benzyl}-6-phenylamino-2H-pyridazin-3-one] | 1 to 100 | 100 to 10000
